Values of other authors as cited in US20110077395A1, “INHIBITORS OF 11-BETA HYDROXYSTEROID DEHYDROGENASE TYPE I” (Bristol-Myers Squibb Company, priority 2005, published 2011).

Test system: hepatic glucose production
Details: mildly overweight individuals with type 2 diabetes, seven days, versus placebo

Question: For CC1(C)[C@@H](OC(=O)CCC(=O)O)CC[C@]2(C)[C@H]3C(=O)C=C4[C@@H]5C[C@@](C)(C(=O)O)CC[C@]5(C)CC[C@@]4(C)[C@]3(C)CC[C@@H]12 [carbenoxolone], which hepatic glucose production is on record?
Answer: The hepatic glucose production was “decrease in hepatic glucose production”.
